Values of other authors as cited in patent publication US6558656B2, “Oral and topical compositions and methods related thereto in the treatment of acne” (priority 2000, dated 2003).
Like-named read-outs stand apart in the source and are kept apart here. Where no end group is shown, it is not given here.

What was measured:
[1] = system: acne
[2] = system: BCO, Candida, or Cryptococcus; details: immunosuppressed mice infected with BCO
[3] = system: Newcastle disease virus; details: mice infected with the Newcastle disease virus
[4] = system: Candida albicans; details: mice, injection
[5] = system: C. albicans, Listeria monocytogenes, Pseudomonas aeruginosa, and Serratia marescens; details: 5-fluorouracil (5FU)- or morphine-immunosuppressed mice, injection

In the case of `CC1=C(/C=C/C(C)=C/C=C/C(C)=C/CO)C(C)(C)CCC1` [micellized Vitamin A, Vitamin A], the toxicity ([1]; in vivo) is given as “known toxicity” and the effectiveness in acne ([1]; very high doses) is given as “moderately effective”.

In the case of “thymosin α1 (SDAAVDTSSEITTKDLKEKKEVVEEAEN; not fully specified (N-terminus); ends and bridges not checked; UniProt P06454 2-29, looked up) [Tα1, an immunomodulatory peptide of 28 amino acids]”, the survival rate [2] is listed as “increased survival rate”, the “amount of interferon (IFN) produced” value [3] is listed as “significant rise” and the “resistance to infection with Candida albicans” value [4] is listed as “increased resistance”. For the same compound, the “protection against opportunistic infections” value [5] was “protect”.

For `CC(C)(CO)[C@@H](O)C(=O)NCCC(=O)O` [Pantothenic acid], the effectiveness in acne ([1]; dosage level of 10 grams per day) is listed as “effective”.

For `[Zn]` [Zinc], the effectiveness in acne ([1]; dosage levels of 100-300 mg per day) is listed as “moderately effective”.

For `CC1=C(/C=C/C(C)=C/C=C/C(C)=C\C(=O)O)C(C)(C)CCC1` [isotretinoin], the sebum production ([1]; administered orally) is given as “decreasing sebum production”, the side effects ([1]; in vivo, po) is given as “potential to induce sever birth defects” and the effectiveness in acne ([1]; oral administration) is given as “proven effective in the vast majority of cases”.
